# Measurements published in paper PMC5400565, “Real-time near-infrared fluorescence imaging using cRGD-ZW800-1 for intraoperative visualization of multiple cancer types” (Oncotarget, 2017).
# What was measured:
# [1] = biological target: T1, 5-hydroxytryptamine (serotonin) receptor 2B (5-HT2B) (Homo sapiens, UniProt P41595); test: Off-target screening (Eurofins Cerep), 5-HT2B; type: binding; details: reference compound, format H, Ag
# T1 construct: Eurofins Cerep SA (contract screening)
# From the text: (§1) Off-target interactions are binding of tracers to other components on the cell surface than the actual target site. These non-specific interactions are often of low affinity and easily missed, but can have significant effects. We outsourced the screening for in vitro for off-target interactions of cRGD-ZW800-1 to Eurofins Cerep SA, Le bois l’Evêque, France. They assessed the percentage of inhibition of a reference compound in 44 selected targets, including G protein-coupled receptors (GPCRs), transporters, ion channels, nuclear receptors, kinases and other non-kinase enzymes. These targets were recommended by four major pharmaceutical companies. The complete list is included in Supplementary Table 1 of the Supplementary Data. Each assay was performed twice using 10 μM cRGD-ZW800-1 and a reference compound. Inhibition higher than 50% was considered to represent a significant effect of cRGD-ZW800-1. Results showing between 20% and 50% were considered weak to moderate effects, while lower than 20% was not considered significant and mostly attributable to variability of the signal around the control level.
# [2] = tested on: GABA channels BZD (central); test: Off-target screening (Eurofins Cerep), BZD (central); type: binding; details: reference compound, format Ag
# From the text: as §1
# Na+ channel (site 2) = test: Off-target screening (Eurofins Cerep), Na+ channel; type: binding; details: reference compound, format An
# From the text: as §1
# Adrenergic α1A = biological target: T2, Adrenergic α1A (Homo sapiens, UniProt P35348); test: Off-target screening (Eurofins Cerep), α1A; type: binding; details: reference compound, format H, An
# T2 construct: Eurofins Cerep SA (contract screening)
# T2 sequence (P35348 1-466): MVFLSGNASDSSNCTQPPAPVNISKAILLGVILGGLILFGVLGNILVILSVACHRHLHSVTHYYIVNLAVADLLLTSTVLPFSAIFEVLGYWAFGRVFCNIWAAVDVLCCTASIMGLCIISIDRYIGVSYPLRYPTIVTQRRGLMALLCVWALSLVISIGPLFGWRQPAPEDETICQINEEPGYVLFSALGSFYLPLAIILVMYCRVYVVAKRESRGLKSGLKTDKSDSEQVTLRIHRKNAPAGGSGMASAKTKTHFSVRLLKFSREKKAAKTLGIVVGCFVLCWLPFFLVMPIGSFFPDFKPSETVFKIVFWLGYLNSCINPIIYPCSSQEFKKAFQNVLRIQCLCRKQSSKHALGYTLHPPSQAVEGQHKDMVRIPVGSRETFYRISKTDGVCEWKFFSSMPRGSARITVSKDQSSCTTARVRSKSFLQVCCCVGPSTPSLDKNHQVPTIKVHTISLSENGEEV
# From the text: as §1
# KV channel = test: Off-target screening (Eurofins Cerep), KV channel; type: binding; details: reference compound, format An
# From the text: as §1
# [3] = human, in vivo, iv; cited from earlier work
# From the text: Besides interacting with extracellular matrix proteins, integrin αvβ3 can also modulate intracellular pathways essential for COX-2 expression. The inhibition of COX-2 as shown in the in vitro off-target screening may be the result of binding cRGD-ZW800-1 to integrin αvβ3.
# T1 sequence (P41595 whole entry): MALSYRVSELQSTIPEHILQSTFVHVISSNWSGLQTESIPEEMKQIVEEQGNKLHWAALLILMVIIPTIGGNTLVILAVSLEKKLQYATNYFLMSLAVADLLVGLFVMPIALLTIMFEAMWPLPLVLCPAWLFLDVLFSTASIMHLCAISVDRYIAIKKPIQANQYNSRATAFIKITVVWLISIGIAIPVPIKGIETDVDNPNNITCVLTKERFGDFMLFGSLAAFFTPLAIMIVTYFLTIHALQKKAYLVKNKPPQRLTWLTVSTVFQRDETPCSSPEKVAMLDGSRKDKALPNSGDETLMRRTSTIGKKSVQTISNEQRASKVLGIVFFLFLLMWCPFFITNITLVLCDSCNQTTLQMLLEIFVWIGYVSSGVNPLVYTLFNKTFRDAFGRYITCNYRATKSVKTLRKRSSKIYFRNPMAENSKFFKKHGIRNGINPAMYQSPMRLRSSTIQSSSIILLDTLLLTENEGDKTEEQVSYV
compound,measurement,setting,value
"COc1cc(CC(C)N)c(OC)cc1I (racemic) [(±)DOI, reference compound]",IC50,[1],4 nM
"CN1C(=O)CN=C(c2ccccc2)c2cc(Cl)ccc21 [Diazepam, reference compound]",IC50,[2],12 nM
"COc1ccc(C(=O)O[C@H]2CC[C@@]3(C)[C@@H]4CC[C@H]5[C@]6(O)C[C@H](O)[C@@]7(O)[C@@H](CN8C[C@@H](C)CC[C@H]8[C@@]7(C)O)[C@]6(O)C[C@@]53O[C@]24O)cc1OC [Veratridine, reference compound]",IC50,Na+ channel (site 2),6800 nM
"COc1cccc(OC)c1OCCNCC1COc2ccccc2O1 (stereo not drawn) [WB 4101, reference compound]",IC50,Adrenergic α1A,0.46 nM
Alpha -dendrotoxin [reference compound],IC50,KV channel,0.23 nM
cilengitide,side effects,[3],without serious side effects
